These results are taken from patent US11524966B1 (Valo Early Discovery, Inc., priority 2017, dated 2022).

The test addresses T1, USP28 (USP28-5(1-1077)-TEV-6*His; LifeSensors) (Homo sapiens, UniProt Q96RU2).
T1 construct: construct USP28 (USP28-5(1-1077)-TEV-6*His; LifeSensors); TEV cleavage site (C); 6xHis (C); purchased LifeSensors
T1 sequence (Q96RU2 1-1077): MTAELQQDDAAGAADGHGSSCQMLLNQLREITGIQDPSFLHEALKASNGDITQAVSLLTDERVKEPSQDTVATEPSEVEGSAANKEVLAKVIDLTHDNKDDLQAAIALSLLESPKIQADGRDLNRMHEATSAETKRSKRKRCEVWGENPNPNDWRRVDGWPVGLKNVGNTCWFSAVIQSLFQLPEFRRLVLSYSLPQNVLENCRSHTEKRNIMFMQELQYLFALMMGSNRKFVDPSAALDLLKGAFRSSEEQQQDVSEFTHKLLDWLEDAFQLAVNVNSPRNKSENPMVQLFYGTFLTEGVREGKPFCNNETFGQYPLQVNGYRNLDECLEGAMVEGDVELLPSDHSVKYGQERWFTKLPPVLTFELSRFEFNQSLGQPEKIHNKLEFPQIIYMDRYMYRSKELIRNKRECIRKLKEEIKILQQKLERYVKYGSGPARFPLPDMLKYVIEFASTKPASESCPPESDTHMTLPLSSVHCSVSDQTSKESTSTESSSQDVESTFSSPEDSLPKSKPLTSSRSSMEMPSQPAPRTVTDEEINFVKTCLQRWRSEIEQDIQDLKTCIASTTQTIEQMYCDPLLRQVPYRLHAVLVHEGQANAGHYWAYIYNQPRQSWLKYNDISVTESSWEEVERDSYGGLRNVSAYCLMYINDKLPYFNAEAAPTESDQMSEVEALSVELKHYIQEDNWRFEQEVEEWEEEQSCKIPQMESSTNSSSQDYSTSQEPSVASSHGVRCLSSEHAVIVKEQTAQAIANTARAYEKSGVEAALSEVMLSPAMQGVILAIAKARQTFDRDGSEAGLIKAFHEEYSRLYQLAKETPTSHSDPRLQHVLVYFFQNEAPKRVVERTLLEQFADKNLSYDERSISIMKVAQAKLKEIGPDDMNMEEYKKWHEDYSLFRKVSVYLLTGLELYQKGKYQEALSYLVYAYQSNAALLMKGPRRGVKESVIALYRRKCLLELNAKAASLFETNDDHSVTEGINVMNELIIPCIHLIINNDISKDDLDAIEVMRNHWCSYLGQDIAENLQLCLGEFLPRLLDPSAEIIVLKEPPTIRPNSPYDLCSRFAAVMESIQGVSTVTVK
Nature of the test: Ubiquitin-Rhodamine 110 Assay for USP28 Activity, Example A-1(b). The test is classed as biochemical. Conditions: Ub-Rh110 assay, Example A-1(b). The procedure, abridged: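 Single-point screening used 10 μM compound with 90 min room-temperature incubation; follow-up dose-responses (25 μM top, 3-fold) used 75 pM USP28 1-1077 construct, 30 min compound preincubation, 25 nM Ub-Rh110, 20 min reaction, citric acid quench. Rh110 fluorescence normalised to no-enzyme and DMSO controls; IC50 from 4-parameter logistic fit.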
Take `Cc1cnc2c(N)c(C(=O)N[C@H]3CCc4cc(N5CCNCC5)c(C)cc4C3)sc2n1` (single isomer, unassigned) [Example 2-34]: the “USP28 A-1(b) IC50 range” value is reported as “++ (0.2-2 μM)”.
The same measure for `Cc1nc2sc(C(=O)N[C@H]3COc4cc(N5CCNCC5)ccc4C3)c(N)c2s1` [Example 1-25, (R)-6-amino-2-methyl-N-(7-(piperazin-1-yl)chroman-3-yl)thieno[2,3-d]thiazole-5-carboxamide]: “++ (0.2-2 μM)”.
Turning to `Cc1ccc2c(N)c(C(=O)N[C@H]3COc4cc(N5CC6CC(C5)N6)cc(F)c4C3)sc2n1` (single isomer, unassigned) [Example 1-42], the “USP28 A-1(b) IC50 range” value is on record as “+ (>2 μM)”.
For `Cc1ccc2c(N)c(C(=O)N[C@H]3COc4c(ccc(N5CCNCC5)c4F)C3)sc2n1` [Example 1-33, (R)-3-amino-N-(8-fluoro-7-(piperazin-1-yl)chroman-3-yl)-6-methylthieno[2,3-b]pyridine-2-carboxamide] the value was “+++ (0.05-0.2 μM)”; for `Cc1nc2sc(C(=O)N[C@@H]3COc4cc(N5CC6CCC(C5)N6)ccc4C3)c(N)c2s1` [Example 1-24, N-((3S)-7-(3,8-diazabicyclo[3.2.1]octan-3-yl)chroman-3-yl)-6-amino-2-methylthieno[2,3-d]thiazole-5-carboxamide], “+ (>2 μM)”.
`Nc1c(C(=O)N[C@H]2COc3cc(N4CC5CCC(C4)N5)ccc3C2)sc2ncc(F)cc12` (single isomer, unassigned) [Example 1-17]: the “USP28 A-1(b) IC50 range” value is given as “++ (0.2-2 μM)”.
For `Cc1cc(C)c2c(N)c(C(=O)N[C@H]3COc4cc(N5CC6CC(C5)N6)ccc4C3)sc2n1` [Example 2-18, N-((3R)-7-(3,6-diazabicyclo[3.1.1]heptan-3-yl)chroman-3-yl)-3-amino-4,6-dimethylthieno[2,3-b]pyridine-2-carboxamide] the value was “+++ (0.05-0.2 μM)”; for `Cc1cnc2c(N)c(C(=O)N[C@H]3COc4cc(N5CC6CNCC(C5)O6)ccc4C3)sc2n1` [Example 2-13, N-((3R)-7-(9-oxa-3,7-diazabicyclo[3.3.1]nonan-3-yl)chroman-3-yl)-7-amino-3-methylthieno[2,3-b]pyrazine-6-carboxamide], “++ (0.2-2 μM)”.
The same measure for `COc1nc2sc(C(=O)N[C@H]3COc4cc(N5CCNCC5)ccc4C3)c(N)c2cc1F` [Example 2-16, (R)-3-amino-5-fluoro-6-methoxy-N-(7-(piperazin-1-yl)chroman-3-yl)thieno[2,3-b]pyridine-2-carboxamide]: “++ (0.2-2 μM)”; for `Cc1ccc2c(N)c(C(=O)N[C@@H]3COc4cc(N5CCNCC5)ccc4C3)sc2n1` (single isomer, unassigned) [Example 1-2]: “+ (>2 μM)”; for `Cc1nc2sc(C(=O)N[C@@H]3COc4cc(N5CC6CCC(C5)N6)cc(F)c4C3)c(N)c2s1` (single isomer, unassigned) [Example 1-40]: “+ (>2 μM)”.
For `CCn1ccc2cc(C(=O)N[C@H]3COc4cc(N5CC6CNCC(C5)C6(F)F)ccc4C3)cnc21` [Example 2-30, N-((3R)-7-(9,9-difluoro-3,7-diazabicyclo[3.3.1]nonan-3-yl)chroman-3-yl)-1-ethyl-1H-pyrrolo[2,3-b]pyridine-5-carboxamide] the value was “++++ (0.001-0.05 μM)”; for `Cc1cnc2c(N)c(C(=O)N[C@H]3COc4cc(N5CC6COCC(C5)N6)ccc4C3)sc2n1` [Example 2-12, N-((3R)-7-(3-oxa-7,9-diazabicyclo[3.3.1]nonan-7-yl)chroman-3-yl)-7-amino-3-methylthieno[2,3-b]pyrazine-6-carboxamide], “++ (0.2-2 μM)”; for `Cc1nc2sc(C(=O)N[C@H]3COc4cc(N5CC6CNCC(C5)C6(F)F)ccc4C3)c(N)c2s1` [Example 2-28, 6-amino-N-((3R)-7-(9,9-difluoro-3,7-diazabicyclo[3.3.1]nonan-3-yl)chroman-3-yl)-2-methylthieno[2,3-d]thiazole-5-carboxamide], “+++ (0.05-0.2 μM)”.
On to `Cc1ccc2c(N)c(C(=O)N[C@H]3COc4cc(N5CC6CCC(C5)N6)ccc4C3)sc2n1` (single isomer, unassigned) [Example 1-3], for which the “USP28 A-1(b) IC50 range” value is on record as “+++ (0.05-0.2 μM)”.
For `Cc1ccc2c(N)c(C(=O)N[C@H]3COc4cc(N5CC6CNCC(C5)C6(F)F)c(C#N)cc4C3)sc2n1` [Example 2-33, 3-amino-N-((3R)-6-cyano-7-(9,9-difluoro-3,7-diazabicyclo[3.3.1]nonan-3-yl)chroman-3-yl)-6-methylthieno[2,3-b]pyridine-2-carboxamide] the value was “++++ (0.001-0.05 μM)”.
The same measure for `Cc1ccc2c(N)c(C(=O)N[C@H]3COc4cc(N5CCN[C@H](C)[C@@H]5C)ccc4C3)sc2n1` (single isomer, unassigned) [Example 1-9]: “++ (0.2-2 μM)”; for `Cc1ccc2c(N)c(C(=O)N[C@H]3COc4cc(N5C6CCC5CNC6)ccc4C3)sc2n1` [Example 2-6, N-((3R)-7-(3,8-diazabicyclo[3.2.1]octan-8-yl)chroman-3-yl)-3-amino-6-methylthieno[2,3-b]pyridine-2-carboxamide]: “+++ (0.05-0.2 μM)”.
For `CCn1ccc2cc(C(=O)N[C@H]3COc4cc(N5CC6CCCC(C5)N6)ccc4C3)nnc21` [Example 2-29, N-((3R)-7-(3,9-diazabicyclo[3.3.1]nonan-3-yl)chroman-3-yl)-7-ethyl-7H-pyrrolo[2,3-c]pyridazine-3-carboxamide] the value was “++ (0.2-2 μM)”; for `Cc1ccc2c(N)c(C(=O)N[C@@H]3COc4cc(N5CCN[C@H](C)[C@@H]5C)ccc4C3)sc2n1` (single isomer, unassigned) [Example 1-10], “++ (0.2-2 μM)”.
Consider `Cc1ccc2c(N)c(C(=O)N[C@H]3COc4cc(N5CC6CCCC(C5)N6)ccc4C3)sc2n1` (single isomer, unassigned) [Example 1-5], for which the “USP28 A-1(b) IC50 range” value is on record as “++++ (0.001-0.05 μM)”.
For `Cc1ccc2c(N)c(C(=O)N[C@@H]3COc4cc(N5CC6CC(C5)N6)cc(F)c4C3)sc2n1` (single isomer, unassigned) [Example 1-41] the value was “+++ (0.05-0.2 μM)”.
For `Cc1cc(C)c2c(N)c(C(=O)N[C@H]3COc4cc(N5CCNCC5)ccc4C3)sc2n1` [Example 2-17, (R)-3-amino-4,6-dimethyl-N-(7-(piperazin-1-yl)chroman-3-yl)thieno[2,3-b]pyridine-2-carboxamide] the value was “+++ (0.05-0.2 μM)”.
Turning to `Cc1ccc2c(N)c(C(=O)N[C@@H]3COc4cc(N5CC6CCCC(C5)N6)ccc4C3)sc2n1` (single isomer, unassigned) [Example 1-6], the “USP28 A-1(b) IC50 range” value is recorded as “++ (0.2-2 μM)”.
For `Cc1cc(C)c2c(N)c(C(=O)N[C@H]3COc4cc(N5CC6CNCC(C5)C6(F)F)ccc4C3)sc2n1` [Example 2-19, 3-amino-N-((3R)-7-(9,9-difluoro-3,7-diazabicyclo[3.3.1]nonan-3-yl)chroman-3-yl)-4,6-dimethylthieno[2,3-b]pyridine-2-carboxamide] the value was “++++ (0.001-0.05 μM)”; for `Cc1nc2sc(C(=O)N[C@H]3COc4cc(N5CC6CC(C5)N6)ccc4C3)c(N)c2s1` [Example 2-26, N-((3R)-7-(3,6-diazabicyclo[3.1.1]heptan-3-yl)chroman-3-yl)-6-amino-2-methylthieno[2,3-d]thiazole-5-carboxamide], “++ (0.2-2 μM)”; for `Cc1ccc2c(N)c(C(=O)N[C@H]3COc4cc(N5CCC[C@](N)(C(F)(F)F)C5)ccc4C3)sc2n1` (single isomer, unassigned) [Example 3-4], “+++ (0.05-0.2 μM)”.
For `Cc1ccc2c(N)c(C(=O)N[C@@H]3COc4cc(N5CC6CCC(C5)N6)cc(F)c4C3)sc2n1` (single isomer, unassigned) [Example 1-30] the value was “+ (>2 μM)”; for `Cc1cnc2c(N)c(C(=O)N[C@H]3CCc4c(ccc(N5CCNCC5)c4C)C3)sc2n1` (single isomer, unassigned) [Example 2-36], “+ (>2 μM)”.
